Experimental data taken from US10899737B2, “Piperazine carbamates and methods of making and using same” (Lundbeck La Jolla Research Center, Inc., priority 2016, dated 2021).

Columns and labels:
MAGL [1] = target: T1, MAGL (Mus musculus, UniProt O35678); experiment: In vitro competitive activity-based protein profiling (mouse), MAGL; format: biochemical; conditions: for inhibition at 1 µM: 1 μM inhibitor, mouse brain membrane fraction or cell lysates, read-out: MAGL % inh. 1 μM (mouse)
T1 construct: Proteomes (mouse brain membrane fraction or cell lysates); from tissue; host or cells: mouse brain membrane fraction or cell lysates
T1 sequence (O35678 1-303): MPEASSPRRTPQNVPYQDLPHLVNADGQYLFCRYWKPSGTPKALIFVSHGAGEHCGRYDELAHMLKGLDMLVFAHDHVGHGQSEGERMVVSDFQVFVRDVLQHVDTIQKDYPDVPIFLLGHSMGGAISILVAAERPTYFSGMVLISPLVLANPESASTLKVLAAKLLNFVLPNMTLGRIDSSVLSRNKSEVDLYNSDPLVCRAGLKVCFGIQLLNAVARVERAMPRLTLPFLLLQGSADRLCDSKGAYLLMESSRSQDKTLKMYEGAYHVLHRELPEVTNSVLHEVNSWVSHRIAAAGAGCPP
Summary of the method: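 Mouse brain membrane fraction or cell lysate proteomes (50 μL, 1.0 mg/mL total protein) were preincubated with inhibitors at varying concentrations for 30 min at 37° C. FP-Rh (1.0 μL, 50 μM in DMSO) was then added for a further 30 min at 37° C. Samples were quenched with 4× SDS loading buffer and resolved by SDS-PAGE. MAGL activity was quantified from fluorescent gel band intensity using ImageJ 1.49 k.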

ABHD6 [2] = target: T2, ABHD6 (Mus musculus, UniProt Q8R2Y0); experiment: In vitro competitive activity-based protein profiling (mouse), ABHD6; format: biochemical; conditions: 1 μM inhibitor, mouse brain membrane fraction or cell lysates; read-out: ABHD6 % inh. 1 μM (mouse)
T2 construct: Proteomes (mouse brain membrane fraction or cell lysates); from tissue; host or cells: mouse brain membrane fraction or cell lysates
T2 sequence (Q8R2Y0 1-336): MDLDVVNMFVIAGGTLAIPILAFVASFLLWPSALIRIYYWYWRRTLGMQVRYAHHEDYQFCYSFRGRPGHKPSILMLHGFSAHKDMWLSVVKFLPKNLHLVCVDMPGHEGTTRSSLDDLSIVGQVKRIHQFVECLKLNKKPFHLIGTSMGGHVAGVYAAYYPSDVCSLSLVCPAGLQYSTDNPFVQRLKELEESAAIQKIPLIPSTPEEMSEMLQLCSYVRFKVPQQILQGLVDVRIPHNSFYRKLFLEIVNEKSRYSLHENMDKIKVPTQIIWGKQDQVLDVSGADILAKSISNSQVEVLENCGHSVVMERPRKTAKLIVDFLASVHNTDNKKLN
Summary of the method: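 Mouse brain membrane proteome or cell lysate (1.0 mg/mL protein) preincubated 30 min at 37 °C with inhibitor, then labelled 30 min at 37 °C with FP-rhodamine probe. Remaining MAGL and ABHD6 activity quantified by in-gel fluorescence band intensity after SDS-PAGE; values are % inhibition at 1 μM.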

MAGL [3] = target: T3, MAGL (Homo sapiens, UniProt Q99685); experiment: In vitro competitive activity-based protein profiling (human), MAGL; format: biochemical; conditions: for inhibition at 1 µM: 1 μM inhibitor, human proteome, 30 min preincubation at 37° C, read-out: MAGL % inh. 1 μM (human); for IC50: human PC3
T3 construct: Proteomes (human prefrontal cortex or cell membrane fractions); from tissue
T3 sequence (Q99685 1-303): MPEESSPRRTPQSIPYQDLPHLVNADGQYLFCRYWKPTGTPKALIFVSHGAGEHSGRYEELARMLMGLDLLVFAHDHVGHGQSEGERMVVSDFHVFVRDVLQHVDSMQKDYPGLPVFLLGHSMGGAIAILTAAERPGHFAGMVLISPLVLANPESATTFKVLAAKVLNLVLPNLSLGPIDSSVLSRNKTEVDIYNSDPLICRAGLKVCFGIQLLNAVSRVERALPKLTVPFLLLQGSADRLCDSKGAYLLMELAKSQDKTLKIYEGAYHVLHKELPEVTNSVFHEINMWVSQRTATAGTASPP
Summary of the method: (§1)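 Human prefrontal cortex or cell membrane proteomes (1.0-2.0 mg/mL protein) preincubated 30 min at 37° C with inhibitor, then labeled 30 min RT with FP-Rh or JW912 probe. After SDS-PAGE, activity taken from fluorescent band intensity for each enzyme.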

ABHD6 [4] = target: T4, ABHD6 (Homo sapiens, UniProt Q9BV23); experiment: In vitro competitive activity-based protein profiling (human), ABHD6; format: biochemical; conditions: human PC3
T4 construct: Proteomes (human prefrontal cortex or cell membrane fractions); endogenous in cells; human prefrontal cortex
T4 sequence (Q9BV23 1-337): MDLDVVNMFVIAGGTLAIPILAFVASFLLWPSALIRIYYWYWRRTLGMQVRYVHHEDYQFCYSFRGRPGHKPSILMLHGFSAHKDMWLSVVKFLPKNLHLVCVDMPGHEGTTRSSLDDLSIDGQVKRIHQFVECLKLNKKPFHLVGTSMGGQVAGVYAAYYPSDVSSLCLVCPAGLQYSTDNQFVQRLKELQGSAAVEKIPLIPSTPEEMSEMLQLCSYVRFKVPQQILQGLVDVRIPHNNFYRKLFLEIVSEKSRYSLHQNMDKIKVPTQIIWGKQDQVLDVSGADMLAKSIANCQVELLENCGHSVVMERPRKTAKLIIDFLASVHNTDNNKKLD
Summary of the method: as §1

MAGL [5] = target: T1, MAGL; experiment: Mouse brain proteomes from inhibitor treated mice, MAGL inhibition; format: in vivo; conditions: 5 mg/kg oral gavage, C57Bl/6J mouse brain, 4 h following administration; read-out: MAGL % inh. 5 mg/kg (mouse)
Method: Preparation of Mouse Brain Proteomes from Inhibitor Treated Mice.
Inhibitors were administered to wild-type C57Bl/6J by oral gavage in a vehicle of polyethylene glycol. Each animal was sacrificed 4 h following administration and brain proteomes were prepared and analyzed according to previously established methods (See Niphakis, M. J., et al. (2011) ACS Chem. Neurosci. and Long, J. Z., et al. Nat. Chem. Biol. 5:37-44).

SMILES | inhibition at 1 µM (MAGL [1]) | inhibition at 1 µM (ABHD6 [2]) | inhibition at 1 µM (MAGL [3]) | IC50 (MAGL [3]) | IC50 (ABHD6 [4]) | inhibition at 5 mg/kg (MAGL [5]) | IC50 (MAGL [1]; mouse proteome)
CC1(C(=O)O)CCN(c2cc(C(F)(F)F)ccc2CN2CCN(C(=O)OC(C(F)(F)F)C(F)(F)F)CC2)C1 (stereo not shown) [Example 55, 1-{2-[(4-{[(1,1,1,3,3,3-hexafluoropropan-2-yl)oxy]carbonyl}piperazin-1-yl)methyl]-5-(trifluoromethyl)phenyl}-3-methylpyrrolidin-3-carboxylic acid] | ≥ 75% | ≥ 75% | ≥ 75% | ≤ 0.1 µM | 0.1 to 1 µM | 25 to 50% | 
CC1(C(=O)O)CN(c2cc(C(F)(F)F)ccc2CN2CCN(C(=O)OC(C(F)(F)F)C(F)(F)F)CC2)CCO1 (stereo not shown) [Example 57, 4-{2-[(4-{[(1,1,1,3,3,3-hexafluoropropan-2-yl)oxy]carbonyl}piperazin-1-yl)methyl]-5-(trifluoromethyl)phenyl}-2-methylmorpholine-2-carboxylic acid] | ≥ 75% | 0 to 25% | ≥ 75% | ≤ 0.1 µM | 1 to 10 µM | 0 to 25% | ≤ 0.1 µM
Cc1ccc(CN2CCN(C(=O)OC(C(F)(F)F)C(F)(F)F)CC2)c(N2CCC(C(=O)O)CC2)c1F [Example 59, 1-(2-fluoro-6-((4-(((1,1,1,3,3,3-hexafluoropropan-2-yl)oxy)carbonyl)piperazin-1-yl)methyl)-3-methylphenyl)piperidine-4-carboxylic acid] | ≥ 75% | ≥ 75% | ≥ 75% | ≤ 0.1 µM | 1 to 10 µM | ≥ 75% | 

More lines, now with the values ahead:

inhibition at 1 µM (MAGL [1]) | inhibition at 1 µM (ABHD6 [2]) | inhibition at 1 µM (MAGL [3]) | IC50 (MAGL [3]) | IC50 (ABHD6 [4]) | inhibition at 5 mg/kg (MAGL [5]) | IC50 (MAGL [1]; mouse proteome) | SMILES
≥ 75% | 0 to 25% | ≥ 75% | ≤ 0.1 µM | 1 to 10 µM | ≥ 75% |  | O=C(OC(C(F)(F)F)C(F)(F)F)N1CCN(Cc2ccc(C(F)(F)F)cc2C2(C(=O)O)CCOCC2)CC1 [Example 45, 4-(2-((4-(((1,1,1,3,3,3-hexafluoropropan-2-yl)oxy)carbonyl)piperazin-1-yl)methyl)-5-(trifluoromethyl)phenyl)tetrahydro-2H-pyran-4-carboxylic acid]
≥ 75% | 0 to 25% | ≥ 75% | ≤ 0.1 µM | 1 to 10 µM | 0 to 25% |  | O=C(O)C1CCN(C(=O)c2cc(CN3CCN(C(=O)OC(C(F)(F)F)C(F)(F)F)CC3)ccc2C(F)(F)F)CC1 [Example 46, 1-(5-((4-(((1,1,1,3,3,3-hexafluoropropan-2-yl)oxy)carbonyl)piperazin-1-yl)methyl)-2-(trifluoromethyl)benzoyl)piperidine-4-carboxylic acid]
≥ 75% | 0 to 25% | ≥ 75% | ≤ 0.1 µM | 1 to 10 µM | 0 to 25% |  | CC1(NCC(=O)O)CCN(c2cc(C(F)(F)F)ccc2CN2CCN(C(=O)OC(C(F)(F)F)C(F)(F)F)CC2)CC1 [Example 51, (1-(2-((4-(((1,1,1,3,3,3-hexafluoropropan-2-yl)oxy)carbonyl)piperazin-1-yl)methyl)-5-(trifluoromethyl)phenyl)-4-methylpiperidin-4-yl)glycine]
≥ 75% | 50 to 75% | ≥ 75% | ≤ 0.1 µM | 1 to 10 µM | ≥ 75% |  | CC1(C(=O)O)CCCN(c2cc(C(F)(F)F)ccc2CN2CCN(C(=O)OC(C(F)(F)F)C(F)(F)F)CC2)C1 (stereo not shown) [Example 54, 1-(2-((4-(((1,1,1,3,3,3-hexafluoropropan-2-yl)oxy)carbonyl)piperazin-1-yl)methyl)-5-(trifluoromethyl)phenyl)-3-methylpiperidine-3-carboxylic acid]
